We go through 30 compounds from US10703764B2, “Benzopiperazine compositions as BET bromodomain inhibitors” (FORMA Therapeutics, Inc., priority 2013, dated 2020).

For one assay, the system named is MV4-11 cells. Briefly: Oncology cell growth assay (3-day proliferation, CellTiter-Glo). The assay is classed as cell-based. The following applies: Homo sapiens, MV4-11, 72 h, AML cell line MV4-11, 72 hours, compounds grouped by IC50 range, read-out: MV4-11 IC50 (inhibition of proliferation, gIC50). The procedure, abridged: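 72 h, 37° C, 5% CO2; MV4-11, 3000 cells/well, RPMI 1640 + 10% FBS. Compound final 10, 3.3, 1.1, 0.37, 0.12, 0.041, 0.013, 0.0045 μM. Readout CellTiter-Glo luminescence; gIC50 by 4-parameter logistic fit, normalised to DMSO and no-cell background.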
On the technique in general: Cellular ATP, detected with luciferase, serves as a proxy for viable cell number.

A further assay deals with T1, BRD4 BD2 (Homo sapiens, UniProt O60885).
T1 construct: made in house
In words: AlphaScreen binding assay, BRD4 Bromodomain 2. The essentials:
(§1)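 An AlphaScreen competition format was used with His-BRD4 BD1 or BD2 and biotin-H4 K5/8/12/16-acetyl peptide, each at matched final levels of 50 nM (BD1) or 100 nM (BD2). Incubation in HEPES/NaCl buffer with 0.1% BSA and 0.01% Triton X-100 ran ≥1 h before IC50 determination.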
For orientation: In Alpha technology, singlet oxygen from a donor bead excites a nearby acceptor bead.

Another assay deals with T2, BRD4 BD1 (Homo sapiens, UniProt O60885).
T2 construct: made in house
In words: AlphaScreen binding assay, BRD4 Bromodomain 1. The procedure, abridged:
as §1

Consider `CC(=O)N1c2ccc(-c3cccc(N4CCCS4(=O)=O)c3)cc2N(C(=O)C2CCC2)C[C@@H]1C` [Example I-1161], for which the IC50 in the assay with MV4-11 cells is > 500 nM; at BRD4 BD2, 50 to 500 nM; on BRD4 BD1 it was 1000 to 10000 nM.
`CC(=O)N1c2ccc(-c3ccc(S(C)(=O)=O)cc3)cc2N(C(=O)Oc2ccccc2Cl)C[C@@H]1C` [Example I-225]: the values for the IC50 in the assay on MV4-11 cells, on BRD4 BD2 and at BRD4 BD1 were < 100 nM, < 50 nM and 100 to 1000 nM, respectively.
As for `CC(=O)N1c2ccc(-c3cnn(C4CCOCC4)c3)cc2N(C(=O)C2CC2)C[C@@H]1C` [Example I-1302], the IC50 in the assay on MV4-11 cells was 100 to 500 nM; on BRD4 BD2 it was < 50 nM; on BRD4 BD1, 100 to 1000 nM.
In the case of `CC(=O)N1c2ccc(-c3cnn(C4CC4)c3)cc2N(C(=O)Oc2cncc(F)c2)C[C@@H]1C` [Example I-1189], the values for the IC50 in the assay on MV4-11 cells, on BRD4 BD2 and on BRD4 BD1 were 100 to 500 nM, 50 to 500 nM and 100 to 1000 nM, respectively.
For the compound `CC(=O)N1c2ccc(-c3cnn(C4CC4)c3)cc2N(C(=O)Oc2ccc(Cl)cc2C)C[C@@H]1C` [Example I-267], the IC50 was 100 to 500 nM with MV4-11 cells, < 50 nM at BRD4 BD2 and 100 to 1000 nM at BRD4 BD1.
As to `CCOC(=O)N1C[C@H](C)N(C(C)=O)c2ccc(-c3ccc(N4CCCC4=O)cc3)cc21` [Example I-1133], the IC50 was 100 to 500 nM in the assay on MV4-11 cells, 50 to 500 nM on BRD4 BD2 and 1000 to 10000 nM on BRD4 BD1.
On to `COC(=O)N1c2ccc(-c3cn(C)nn3)cc2N(C(=O)OC(C)C)C[C@@H]1C` [Example I-490], for which the IC50 is > 500 nM in the assay with MV4-11 cells, 50 to 500 nM on BRD4 BD2 and 100 to 1000 nM on BRD4 BD1.
On to `CC(=O)N1c2ccc(-c3cnn(C4CS(=O)(=O)C4)c3)cc2N(C(=O)OC(C)C)C[C@@H]1C` [Example I-1306], for which the IC50 was > 500 nM in the assay with MV4-11 cells, 50 to 500 nM at BRD4 BD2 and 100 to 1000 nM on BRD4 BD1.
On to `CC(=O)N1c2ccc(-c3ccc(S(C)(=O)=O)cc3)cc2N(C(=O)OCC2CC2)C[C@@H]1C` [Example I-495], for which the results for the IC50 in the assay on MV4-11 cells, at BRD4 BD2 and on BRD4 BD1 were 100 to 500 nM, > 500 nM and 100 to 1000 nM, respectively.
The corresponding values for `COCCn1cc(-c2ccc3c(c2)N(C(=O)OC(C)C)C[C@H](C)N3C(=O)C2CC2)cn1` [Example I-314] are 100 to 500 nM, 50 to 500 nM and 100 to 1000 nM.
As for `CCOC(=O)N1C[C@H](C)N(C(C)=O)c2ccc(-c3cccc(S(=O)(=O)CC)c3)cc21` [Example I-1092], the IC50 in the assay on MV4-11 cells is > 500 nM; at BRD4 BD2, 50 to 500 nM; at BRD4 BD1, 1000 to 10000 nM.
For `COC(=O)N1c2ccc(-c3ccc(C(=O)N4CC[C@@H](N(C)C)C4)cc3)cc2N(C(=O)OC(C)C)C[C@@H]1C` [Example I-565], the IC50 with MV4-11 cells lay in the range of 100 to 500 nM; at BRD4 BD2 it was 50 to 500 nM; on BRD4 BD1, 100 to 1000 nM.
`CC(=O)N1c2ccc(-c3cnn(C4CC4)c3)cc2N(C(=O)Oc2ccc3cnccc3c2)C[C@@H]1C` [Example I-1192]: the IC50 in the assay with MV4-11 cells is < 100 nM; at BRD4 BD2 it was < 50 nM; on BRD4 BD1, 100 to 1000 nM.
The corresponding values for `CC(=O)N1c2ccc(-c3cnc(C)s3)cc2N(C(=O)c2ccco2)C[C@@H]1C` [Example I-15, (S)-1-(4-(furan-2-carbonyl)-2-methyl-6-(2-methylthiazol-5-yl)-3,4-dihydroquinoxalin-1(2H)-yl)ethanone] are 100 to 500 nM, < 50 nM and 1000 to 10000 nM.
Take `CC(=O)N1c2ccc(-c3cnn(C4CC4)c3)cc2N(C(=O)Oc2cccnc2)C[C@@H]1C` [Example I-510]: the IC50 with MV4-11 cells was 100 to 500 nM; at BRD4 BD2, < 50 nM; at BRD4 BD1, < 100 nM.
As to `CC(=O)N1c2ccc(-c3ccc(NC(N)=O)cc3)cc2N(C(=O)c2ccco2)C[C@@H]1C` [Example I-280], the IC50 is 100 to 500 nM in the assay on MV4-11 cells, < 50 nM at BRD4 BD2 and 1000 to 10000 nM on BRD4 BD1.
Turning to `CC(=O)N1c2ccc(-c3ccc(S(N)(=O)=O)cc3)cc2N(C(=O)OC2CCOCC2)C[C@@H]1C` [Example I-1234], the IC50 fell in the range of 100 to 500 nM in the assay on MV4-11 cells, 50 to 500 nM at BRD4 BD2 and 100 to 1000 nM at BRD4 BD1.
Regarding `CC(=O)N1c2ccc(-c3cccc(S(=O)(=O)N(C)C)c3)cc2N(C(=O)OC2CCCCC2)C[C@@H]1C` [Example I-1223], the figures for the IC50 in the assay on MV4-11 cells, on BRD4 BD2 and at BRD4 BD1 were 100 to 500 nM, 50 to 500 nM and 100 to 1000 nM, respectively.
Take `CCCS(=O)(=O)c1ccc(-c2ccc3c(c2)N(C(=O)C2CC2)C[C@H](C)N3C(C)=O)cc1` [Example I-1070]: the figures for the IC50 in the assay on MV4-11 cells, at BRD4 BD2 and at BRD4 BD1 were 100 to 500 nM, 50 to 500 nM and 1000 to 10000 nM, respectively.
`CCN(CC)C(=O)c1ccc(-c2ccc3c(c2)N(C(=O)OC(C)C)C[C@H](C)N3C(C)=O)cc1` [Example I-536]: the IC50 with MV4-11 cells was 100 to 500 nM; at BRD4 BD2, < 50 nM; at BRD4 BD1, 100 to 1000 nM.
With `CC(=O)N1c2ccc(-c3ccc4c(c3)OCO4)cc2N(C(=O)c2ccco2)C[C@@H]1C` [Example I-806], the IC50 was 100 to 500 nM in the assay on MV4-11 cells, 50 to 500 nM on BRD4 BD2 and 1000 to 10000 nM on BRD4 BD1.
The corresponding values for `CC(=O)N1c2ccc(-c3cc(Cl)cc(S(C)(=O)=O)c3)cc2N(C(=O)C2CC2)C[C@@H]1C` [Example I-1094] are > 500 nM, > 500 nM and 1000 to 10000 nM.
Take `CC(=O)N1c2ccc(-c3cccc(NS(C)(=O)=O)c3)cc2N(C(=O)OC2CCCCC2)C[C@@H]1C` [Example I-1221]: the figures for the IC50 in the assay with MV4-11 cells, on BRD4 BD2 and on BRD4 BD1 were 100 to 500 nM, 50 to 500 nM and 100 to 1000 nM, respectively.
As to `CC(C)OC(=O)N1C[C@H](C)N(C(=O)C2CC2)c2ccc(-c3cnn(C4CCOCC4)c3)cc21` [Example I-313], the IC50 fell in the range of 100 to 500 nM in the assay on MV4-11 cells, 50 to 500 nM on BRD4 BD2 and 100 to 1000 nM on BRD4 BD1.
As to `CCOC(=O)N1C[C@H](C)N(C(C)=O)c2ccc(-c3ccc(N4CCCS4(=O)=O)c(F)c3)cc21` [Example I-1155], the IC50 in the assay on MV4-11 cells is > 500 nM; on BRD4 BD2 it was 50 to 500 nM; at BRD4 BD1, 100 to 1000 nM.
Consider `CC(=O)N1c2ccc(-c3cnn(C4CCNCC4)c3)cc2N(c2nn(C)c3ccccc23)C[C@@H]1C` [Example I-181, 1-[(2S)-2-methyl-4-(1-methyl-1H-indazol-3-yl)-6-[1-(piperidin-4-yl)-1H-pyrazol-4-yl]-1,2,3,4-tetrahydroquinoxalin-1-yl]ethan-1-one], for which the IC50 in the assay on MV4-11 cells was < 100 nM; at BRD4 BD2 it was < 50 nM; on BRD4 BD1, 100 to 1000 nM.
The corresponding values for `CC(=O)N1c2ccc(-c3cnn(C4CCNCC4)c3)cc2N(C(=O)OC2CCCCC2)C[C@@H]1C` [Example I-1303] are < 100 nM, 50 to 500 nM and 100 to 1000 nM.
The corresponding values for `CC(=O)N1c2ccc(-c3ccc(C(=O)N4CCNCC4)cc3)cc2N(C(=O)OC2CCOCC2)C[C@@H]1C` [Example I-498] are 100 to 500 nM, 50 to 500 nM and 100 to 1000 nM.
On to `CC(=O)N1c2ccc(-c3cnn(C(C)C)c3)cc2N(C(=O)OC(C)C)C[C@@H]1C` [Example I-653], for which the IC50 in the assay with MV4-11 cells was in the range of 100 to 500 nM; at BRD4 BD2, 50 to 500 nM; at BRD4 BD1 it was 100 to 1000 nM.
On to `CC(=O)N1c2ccc(-c3ccc(-c4ncc[nH]4)cc3)cc2N(C(=O)c2ccco2)CC1C` (stereo not drawn) [Example I-429], for which the values for the IC50 in the assay with MV4-11 cells, at BRD4 BD2 and at BRD4 BD1 were 100 to 500 nM, < 50 nM and 100 to 1000 nM, respectively.
